The values below are quoted from earlier work in US20230295183A1, “HOT MELT EXTRUDED SOLID DISPERSIONS CONTAINING A BCL2 INHIBITOR” (Newave Pharmaceutical Inc., priority 2020, published 2023).

The test system of one series is CLL. Particulars: read-out: average EC50, apoptosis in CLL.
A further series addresses Mcl-1 (Homo sapiens, UniProt Q07820).
Another series relates to RS4;11 xenografts. As to conditions: single dose of 100 mg/kg.
The conditions of series [1]: in vivo.
Series [2] deals with xenograft models of small-cell lung cancer and acute lymphoblastic leukemia. Particulars: oral administration, alone.
A further series concerns SCLC H146 cell line. Particulars: read-out: IC50 against SCLC H146 cell line.
The next series concerns the target T1, Bcl-w (Homo sapiens, UniProt Q92843).
T1 sequence (Q92843 1-193): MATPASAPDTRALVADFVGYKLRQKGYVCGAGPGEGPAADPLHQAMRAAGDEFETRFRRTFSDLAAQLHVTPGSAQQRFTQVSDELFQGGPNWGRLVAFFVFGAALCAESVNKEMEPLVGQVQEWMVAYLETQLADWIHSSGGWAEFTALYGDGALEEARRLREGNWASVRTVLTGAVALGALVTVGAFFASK

Another series relates to circulating platelets. Particulars: clinical trial; dose-limiting thrombocytopenia.
The next series deals with H345 xenograft. As to conditions: 100 mg/kg/day, H345 xenograft model.
Another series has as its system established tumors. Particulars: mouse, in vivo.

The structures appear in SMILES notation. Where only a bound is given, the exact number is not on record here.

Sequence of Mcl-1 (Q07820 whole entry): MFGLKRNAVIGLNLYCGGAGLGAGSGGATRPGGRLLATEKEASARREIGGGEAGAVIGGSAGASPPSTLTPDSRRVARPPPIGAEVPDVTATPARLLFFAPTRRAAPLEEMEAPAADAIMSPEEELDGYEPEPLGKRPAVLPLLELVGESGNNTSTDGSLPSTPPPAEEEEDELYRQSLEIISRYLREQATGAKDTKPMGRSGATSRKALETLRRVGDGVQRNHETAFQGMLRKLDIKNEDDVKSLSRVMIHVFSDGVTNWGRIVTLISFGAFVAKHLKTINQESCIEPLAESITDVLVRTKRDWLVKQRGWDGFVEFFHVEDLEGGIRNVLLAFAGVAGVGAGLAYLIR

In general, EC50 refers to the midpoint of the concentration-response curve. With `CC1(C)CCC(CN2CCN(c3ccc(C(=O)NS(=O)(=O)c4ccc(NCC5CCOCC5)c([N+](=O)[O-])c4)c(Oc4cnc5[nH]ccc5c4)c3)CC2)=C(c2ccc(Cl)cc2)C1` [ABT-199], in the series on CLL, the EC50 was 3 nM. For the same molecule, the EC50 in the series on RS4;11 cells was 8 nM. The “activity to Mcl-1” value on Mcl-1 is reported as “no activity”. Besides, in the series on RS4;11 xenografts, the “maximal tumor growth inhibition” value was 95% and the tumor growth delay is reported as 152%.
In general, IC50 refers to the point on the concentration scale where inhibition reaches its midpoint. The term Ki denotes the dissociation constant of the complex between target and ligand, obtained from inhibition or displacement. As usually defined, the TGI is how far tumour growth fell short of that in controls. Take `CC1(C)CCC(c2ccc(Cl)cc2)=C(CN2CCN(c3ccc(C(=O)NS(=O)(=O)c4ccc(N[C@H](CCN5CCOCC5)CSc5ccccc5)c(S(=O)(=O)C(F)(F)F)c4)cc3)CC2)C1` [ABT-263]: the oral bioavailability result in [1] is reported as “orally bioavailable”. The “antitumor effect in xenograft models” value in [2] is recorded as “complete tumor regressions”. For the same molecule, the IC50 in the series on SCLC H146 cell line was 110 nM. In addition, the Ki on Bcl-w was no more than 1 nM. In the series on circulating platelets, the “effect on number of circulating platelets” value is given as “rapid, concentration-dependent decrease in the number of circulating platelets”. In the series with H345 xenograft, the TGI was 80% and the “treated tumors indicating at least a 50% reduction in tumor volume” value was 20%.
For `CN(C)CC[C@H](CSc1ccccc1)Nc1ccc(S(=O)(=O)NC(=O)c2ccc(N3CCN(Cc4ccccc4-c4ccc(Cl)cc4)CC3)cc2)cc1[N+](=O)[O-]` [ABT-737], the aqueous solubility entry is reported as “low aqueous solubility”. Besides, the oral bioavailability result in series [1] is listed as “not orally bioavailable”. In the series with established tumors, the “antitumor effect in animal models” value was “causes regression of established tumors”.
